Measurements: publication PMC11741003 (ACS Chemical Neuroscience, 2024)
Residues, ends and D or L forms follow the SMILES beside them.

How the values were obtained:
[1] = system: rat brain microvascular endothelial cells (RBMECs); assay: Transendothelial electrical resistance (TEER) in the BBB in vitro model; type: cell-based; conditions: RBMEC monolayers
[2] = system: rat brain microvascular endothelial cells (RBMECs)
PrP(92–99) = PrP(92–99) (Homo sapiens, UniProt P04156); conditions: pH 7.4
PrP(106–115) = PrP(106–115) (Homo sapiens, UniProt P04156); conditions: pH 7.4
Aβ(1–16) = conditions: 1 equiv of TP; EPR; cited from earlier work
Text: Although Aβ(1–X) species are the most studied, N-truncated Aβ peptides, such as Aβ(4–X) species (Figure 4A), are highly abundant Aβ isoforms detected in both healthy and AD brains.[58]−[60] Although both peptides bind Cu^2+, their coordination properties and reactivities are completely different.

Aβ(1–40) = molecular target: T1, Aβ(1–40) (Homo sapiens, UniProt P05067); conditions: cited from earlier work
T1 construct: impact the mechanism of Cu^2+-induced aggregation of Aβ(1–40)
T1 sequence (P05067 672-711 limits assumed): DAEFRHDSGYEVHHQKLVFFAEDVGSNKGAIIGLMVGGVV
Text: Scheme 1 TP Holds Therapeutic Potential against AD TP is a tetrapeptide with the sequence MDDWAib. The MD sequence binds Cu^2+ with high affinity (A). […] These findings support a therapeu ...

[3] = system: rat brain microvascular endothelial cells (RBMECs); assay: Peptide recovery (HPLC) from apical and basal compartments of the BBB in vitro model; conditions: peptide alone, apical administration; quantified after 8 and 25 h; HPLC-UV
[4] = BBB in vitro model: primary culture of rat brain microvascular endothelial cells (RBMECs) on inserts, astrocyte-conditioned medium in the basal compartment; conditions: Wistar rat, up to 25 h

NH2-MDDWAib-Am [TP]
Effect on TEER ([1]; TP alone): no effect
Main degradation product in the BBB model [2]: DDWAib
TP degradation in the BBB model [2]: rapidly degraded
TP passage across the BBB model [2]: cannot cross the BBB without P10
Fraction of Cu2+-PrP(92–99) complex in EPR deconvolution (PrP(92–99); 1 equiv of TP): 40%
Fraction of Cu2+-TP complex in EPR deconvolution (PrP(92–99); 1 equiv of TP): 30%
Fraction of ternary TP-Cu2+-PrP(92–99) complex in EPR deconvolution (PrP(92–99); 1 equiv of TP): 30%
Fraction of Cu2+-TP in EPR simulation (PrP(92–99); 2 equiv of TP): 20%
Fraction of ternary TP-Cu2+-PrP(92–99) complex in EPR simulation (PrP(92–99); 2 equiv of TP): 80%
Fraction of Cu2+-PrP(106–115) complex in EPR deconvolution (PrP(106–115); 1 equiv of TP): 30%
Fraction of Cu2+-TP complex in EPR deconvolution (PrP(106–115); 1 equiv of TP): 50%
Fraction of ternary TP-Cu2+-PrP(106–115) complex in EPR deconvolution (PrP(106–115); 1 equiv of TP): 20%
Fraction of Cu2+-TP in EPR simulation (PrP(106–115); 2 equiv of TP): 40%
Fraction of ternary TP-Cu2+-PrP(106–115) complex in EPR simulation (PrP(106–115); 2 equiv of TP): 60%
Removal of Cu2+ from Cu2+-Aβ(1–16) (Aβ(1–16)): removes the metal ion
Effect on Cu2+-induced aggregation of Aβ(1–40) (Aβ(1–40)): impacts the Cu^2+-induced aggregation of Aβ(1–40)
Detection in apical and basal compartments [3]: detected in the apical but not in the basal compartment

NH2-MDDWAib-Am
cleaved bond [4]: Met1-Asp2, major, 3.5 h

CC(C)C[C@H](NC(=O)[C@@H](N)CCCCN)C(=O)N[C@@H](Cc1ccc(O)cc1)C(=O)O [P10] (H-Lys-Leu-Tyr-OH)
Decrease of TEER with respect to control monolayers ([1]; P10 alone, CellZscope continuous measurement): approximately 30%
Decrease of TEER with respect to control monolayers ([1]; P10 together with TP): approximately 30%
